Assay results taken from article PMC12656268, “Venom Peptides Across Asian and American Tarantulas Utilize Dual Pharmacology to Target Activation and Fast Inactivation of Voltage-Gated Sodium Channels” (Toxins, 2025).
Positions of bridges follow the written chain, without caps; N, C: chain ends. Residues, ends and D or L forms follow the SMILES beside them.

Assays:
hNaV1.4 = hNaV1.4 (Homo sapiens, UniProt P35499); test: hNaV1.4 peak current inhibition, automated whole-cell patch clamp (QPatch 16X); assay type: cell-based; details: for IC50: HEK293 + β1, holding −80 mV, 20 ms step to 0 mV from −120 mV 200 ms prepulse, 5 min incubation, mean ± SEM, 3 to 9 independent experiments, read-out: IC50, inhibition of peak current, NaV1.4
Procedure: (§1) Unless otherwise specified, all cell culture reagents were obtained from Life Technologies (Carlsbad, CA, USA). The human neuroblastoma cell line SH-SY5Y (ATCC CRL-2266; Manassas, VA, USA) was maintained in RPMI medium supplemented with 15% fetal bovine serum (FBS) and 2 mM L-glutamine. HEK293 cells stably expressing human NaV channel isoforms together with the β1 auxiliary subunit (SB Drug Discovery, Glasgow, UK) were propagated in Minimal Essential Medium (MEM; Sigma-Aldrich, St. Louis, MO, USA) containing 10% FBS, 100 U/mL penicillin, 100 µg/mL streptomycin, 2 mM L-glutamine, and selective antibiotics (blasticidin, geneticin, and zeocin) at concentrations recommended by the supplier. […]
(§2) Sodium channel currents were recorded from HEK293 cells expressing human NaV isoforms together with the β1 auxiliary subunit (SB Drug Discovery, Glasgow, UK) using the QPatch 16X automated whole-cell patch-clamp platform (Sophion Bioscience A/S, Ballerup, Denmark). […] For determining the potency of Oa1a peptides to inhibit peak current, the maximum peak current within the 20 ms at 0 mV was measured. For determining the potency of Oa1a-NH2 to slow fast inactivation, peak current values were measured at 20 ms of the 0 mV depolarization step. […]
(§3) For calcium influx experiments, bioactivity comparisons between venom fractions and controls were based on the difference between the maximal and minimal fluorescence intensity values obtained from single-replicate assays. […] Reversibility and dissociation kinetics were analyzed by fitting data with a single-phase exponential decay model, while voltage-dependence of steady-state activation and inactivation parameters were derived from Boltzmann sigmoid fits of normalized conductance (G/Gmax) or current (I/Imax) values to determine the half-activation or half-inactivation voltages (V50). Data are expressed as mean ± SEM, where n represents the number of individual cells analyzed.

hNaV1.5 = hNaV1.5 (Homo sapiens, UniProt Q14524); test: hNaV1.5 peak current inhibition, automated whole-cell patch clamp (QPatch 16X); assay type: cell-based; details: for IC50: HEK293 + β1, holding −80 mV, 20 ms step to 0 mV from −120 mV 200 ms prepulse, 5 min incubation, mean ± SEM, 3 to 9 independent experiments, read-out: IC50, inhibition of peak current, NaV1.5
Procedure: as §1, §2, §3

hNaV1.6 = hNaV1.6 (Homo sapiens, UniProt Q9UQD0); test: hNaV1.6 peak current inhibition, automated whole-cell patch clamp (QPatch 16X); assay type: cell-based; details: for IC50: HEK293 + β1, holding −80 mV, 20 ms step to 0 mV from −120 mV 200 ms prepulse, 5 min incubation, mean ± SEM, 3 to 9 independent experiments, read-out: IC50, inhibition of peak current, NaV1.6
Procedure: as §1, §2, §3

hNaV1.7 = hNaV1.7 (Homo sapiens, UniProt Q15858); test: hNaV1.7 peak current inhibition, automated whole-cell patch clamp (QPatch 16X); assay type: cell-based; details: for IC50: HEK293 + β1, holding −80 mV, 20 ms step to 0 mV from −120 mV 200 ms prepulse, 5 min incubation, mean ± SEM, 3 to 9 independent experiments, read-out: IC50, inhibition of peak current, NaV1.7
Sequence of hNaV1.7 (Q07699 19-218): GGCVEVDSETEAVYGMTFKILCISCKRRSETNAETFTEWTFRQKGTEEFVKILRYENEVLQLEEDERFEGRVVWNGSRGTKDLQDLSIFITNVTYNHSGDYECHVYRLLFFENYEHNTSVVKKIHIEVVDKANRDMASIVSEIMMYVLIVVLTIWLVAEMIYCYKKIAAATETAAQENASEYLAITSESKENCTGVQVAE
Sequence of hNaV1.7 (Q15858 whole entry): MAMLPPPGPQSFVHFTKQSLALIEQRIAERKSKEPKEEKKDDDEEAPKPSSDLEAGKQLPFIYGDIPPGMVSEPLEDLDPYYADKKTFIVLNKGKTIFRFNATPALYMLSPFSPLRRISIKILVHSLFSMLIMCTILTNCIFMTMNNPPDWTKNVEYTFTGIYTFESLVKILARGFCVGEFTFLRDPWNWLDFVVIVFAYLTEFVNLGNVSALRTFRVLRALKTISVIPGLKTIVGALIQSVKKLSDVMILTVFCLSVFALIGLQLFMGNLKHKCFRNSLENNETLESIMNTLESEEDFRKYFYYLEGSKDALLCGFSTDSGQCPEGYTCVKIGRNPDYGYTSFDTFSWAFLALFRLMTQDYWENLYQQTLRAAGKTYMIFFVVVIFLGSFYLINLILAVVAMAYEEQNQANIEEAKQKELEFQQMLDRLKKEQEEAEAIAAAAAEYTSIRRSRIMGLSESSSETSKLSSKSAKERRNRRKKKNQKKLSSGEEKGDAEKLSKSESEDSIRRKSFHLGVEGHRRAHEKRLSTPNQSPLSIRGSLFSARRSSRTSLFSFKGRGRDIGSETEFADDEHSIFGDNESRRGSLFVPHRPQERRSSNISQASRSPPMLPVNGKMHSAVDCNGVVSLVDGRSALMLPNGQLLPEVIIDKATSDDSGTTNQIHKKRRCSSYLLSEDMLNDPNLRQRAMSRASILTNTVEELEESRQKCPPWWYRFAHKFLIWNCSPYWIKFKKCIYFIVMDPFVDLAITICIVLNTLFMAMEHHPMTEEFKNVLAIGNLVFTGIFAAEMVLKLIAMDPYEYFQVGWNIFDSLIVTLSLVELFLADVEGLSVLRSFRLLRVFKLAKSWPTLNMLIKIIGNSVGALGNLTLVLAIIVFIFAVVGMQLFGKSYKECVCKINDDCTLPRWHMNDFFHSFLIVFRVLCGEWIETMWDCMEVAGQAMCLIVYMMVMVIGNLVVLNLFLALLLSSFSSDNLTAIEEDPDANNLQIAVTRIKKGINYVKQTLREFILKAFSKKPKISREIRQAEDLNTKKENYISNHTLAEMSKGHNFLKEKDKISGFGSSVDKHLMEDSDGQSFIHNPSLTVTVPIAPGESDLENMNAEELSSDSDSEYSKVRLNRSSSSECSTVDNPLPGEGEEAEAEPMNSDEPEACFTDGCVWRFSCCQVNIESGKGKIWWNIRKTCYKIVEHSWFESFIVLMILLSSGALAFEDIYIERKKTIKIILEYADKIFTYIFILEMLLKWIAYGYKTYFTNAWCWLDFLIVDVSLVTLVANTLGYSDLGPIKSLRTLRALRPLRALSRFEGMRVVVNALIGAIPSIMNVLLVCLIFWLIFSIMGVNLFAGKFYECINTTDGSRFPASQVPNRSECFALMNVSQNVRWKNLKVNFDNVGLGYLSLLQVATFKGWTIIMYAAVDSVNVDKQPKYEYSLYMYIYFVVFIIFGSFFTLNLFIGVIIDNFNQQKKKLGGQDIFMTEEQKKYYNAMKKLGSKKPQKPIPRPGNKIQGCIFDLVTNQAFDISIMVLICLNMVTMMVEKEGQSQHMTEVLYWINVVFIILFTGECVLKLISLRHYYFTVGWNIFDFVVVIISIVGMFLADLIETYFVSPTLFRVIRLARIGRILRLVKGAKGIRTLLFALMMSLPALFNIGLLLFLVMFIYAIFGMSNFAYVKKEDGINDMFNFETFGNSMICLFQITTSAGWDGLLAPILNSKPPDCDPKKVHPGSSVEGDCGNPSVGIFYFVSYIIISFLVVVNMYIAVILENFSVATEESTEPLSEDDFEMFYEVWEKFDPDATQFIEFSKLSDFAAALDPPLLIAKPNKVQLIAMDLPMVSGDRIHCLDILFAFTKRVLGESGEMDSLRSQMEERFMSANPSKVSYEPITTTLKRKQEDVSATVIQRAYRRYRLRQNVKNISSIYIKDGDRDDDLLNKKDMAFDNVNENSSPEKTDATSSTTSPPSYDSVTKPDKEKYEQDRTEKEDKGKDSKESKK
Procedure: as §1, §2, §3

CaV3.2 = test: hCaV3.2 (T-type) current, automated whole-cell patch clamp (QPatch 16X); assay type: cell-based, human; details: up to 10 μM tested; holding −90 mV, 60 ms steps to −30 mV from −120 mV 60 ms conditioning pulse; 5 min incubation; Figure S1
Procedure: (§4) Unless otherwise specified, all cell culture reagents were obtained from Life Technologies (Carlsbad, CA, USA). The human neuroblastoma cell line SH-SY5Y (ATCC CRL-2266; Manassas, VA, USA) was maintained in RPMI medium supplemented with 15% fetal bovine serum (FBS) and 2 mM L-glutamine. HEK293 cells stably expressing human NaV channel isoforms together with the β1 auxiliary subunit (SB Drug Discovery, Glasgow, UK) were propagated in Minimal Essential Medium (MEM; Sigma-Aldrich, St. Louis, MO, USA) containing 10% FBS, 100 U/mL penicillin, 100 µg/mL streptomycin, 2 mM L-glutamine, and selective antibiotics (blasticidin, geneticin, and zeocin) at concentrations recommended by the supplier. HEK293T cells expressing the human CaV3.2 channel (a generous gift from Prof. Emmanuel Bourinet, Institut de Génomique Fonctionnelle, Université de Montpellier, France, and Prof. Edward Perez-Reyes, University of Virginia School of Medicine, USA) were grown in Dulbecco’s MEM supplemented with 10% FBS, 100 U/mL penicillin, 100 µg/mL streptomycin, and 750 µg/mL geneticin.
CaV3.2 channel currents were recorded from HEK293 cells expressing hCaV3.2 using an automated QPatch 16X platform (Sophion Bioscience A/S). […]

NaV1.3 = NaV1.3 (Homo sapiens, UniProt Q9NY46); test: Slowing of fast inactivation of NaV1.3; assay type: cell-based; details: for Slowing of fast inactivation of NaV1.3 (in words): closed-state voltage protocol, current traces, concentrations up to those of IC50 curves
Sequence of NaV1.3 (Q9NY46 whole entry, canonical isoform): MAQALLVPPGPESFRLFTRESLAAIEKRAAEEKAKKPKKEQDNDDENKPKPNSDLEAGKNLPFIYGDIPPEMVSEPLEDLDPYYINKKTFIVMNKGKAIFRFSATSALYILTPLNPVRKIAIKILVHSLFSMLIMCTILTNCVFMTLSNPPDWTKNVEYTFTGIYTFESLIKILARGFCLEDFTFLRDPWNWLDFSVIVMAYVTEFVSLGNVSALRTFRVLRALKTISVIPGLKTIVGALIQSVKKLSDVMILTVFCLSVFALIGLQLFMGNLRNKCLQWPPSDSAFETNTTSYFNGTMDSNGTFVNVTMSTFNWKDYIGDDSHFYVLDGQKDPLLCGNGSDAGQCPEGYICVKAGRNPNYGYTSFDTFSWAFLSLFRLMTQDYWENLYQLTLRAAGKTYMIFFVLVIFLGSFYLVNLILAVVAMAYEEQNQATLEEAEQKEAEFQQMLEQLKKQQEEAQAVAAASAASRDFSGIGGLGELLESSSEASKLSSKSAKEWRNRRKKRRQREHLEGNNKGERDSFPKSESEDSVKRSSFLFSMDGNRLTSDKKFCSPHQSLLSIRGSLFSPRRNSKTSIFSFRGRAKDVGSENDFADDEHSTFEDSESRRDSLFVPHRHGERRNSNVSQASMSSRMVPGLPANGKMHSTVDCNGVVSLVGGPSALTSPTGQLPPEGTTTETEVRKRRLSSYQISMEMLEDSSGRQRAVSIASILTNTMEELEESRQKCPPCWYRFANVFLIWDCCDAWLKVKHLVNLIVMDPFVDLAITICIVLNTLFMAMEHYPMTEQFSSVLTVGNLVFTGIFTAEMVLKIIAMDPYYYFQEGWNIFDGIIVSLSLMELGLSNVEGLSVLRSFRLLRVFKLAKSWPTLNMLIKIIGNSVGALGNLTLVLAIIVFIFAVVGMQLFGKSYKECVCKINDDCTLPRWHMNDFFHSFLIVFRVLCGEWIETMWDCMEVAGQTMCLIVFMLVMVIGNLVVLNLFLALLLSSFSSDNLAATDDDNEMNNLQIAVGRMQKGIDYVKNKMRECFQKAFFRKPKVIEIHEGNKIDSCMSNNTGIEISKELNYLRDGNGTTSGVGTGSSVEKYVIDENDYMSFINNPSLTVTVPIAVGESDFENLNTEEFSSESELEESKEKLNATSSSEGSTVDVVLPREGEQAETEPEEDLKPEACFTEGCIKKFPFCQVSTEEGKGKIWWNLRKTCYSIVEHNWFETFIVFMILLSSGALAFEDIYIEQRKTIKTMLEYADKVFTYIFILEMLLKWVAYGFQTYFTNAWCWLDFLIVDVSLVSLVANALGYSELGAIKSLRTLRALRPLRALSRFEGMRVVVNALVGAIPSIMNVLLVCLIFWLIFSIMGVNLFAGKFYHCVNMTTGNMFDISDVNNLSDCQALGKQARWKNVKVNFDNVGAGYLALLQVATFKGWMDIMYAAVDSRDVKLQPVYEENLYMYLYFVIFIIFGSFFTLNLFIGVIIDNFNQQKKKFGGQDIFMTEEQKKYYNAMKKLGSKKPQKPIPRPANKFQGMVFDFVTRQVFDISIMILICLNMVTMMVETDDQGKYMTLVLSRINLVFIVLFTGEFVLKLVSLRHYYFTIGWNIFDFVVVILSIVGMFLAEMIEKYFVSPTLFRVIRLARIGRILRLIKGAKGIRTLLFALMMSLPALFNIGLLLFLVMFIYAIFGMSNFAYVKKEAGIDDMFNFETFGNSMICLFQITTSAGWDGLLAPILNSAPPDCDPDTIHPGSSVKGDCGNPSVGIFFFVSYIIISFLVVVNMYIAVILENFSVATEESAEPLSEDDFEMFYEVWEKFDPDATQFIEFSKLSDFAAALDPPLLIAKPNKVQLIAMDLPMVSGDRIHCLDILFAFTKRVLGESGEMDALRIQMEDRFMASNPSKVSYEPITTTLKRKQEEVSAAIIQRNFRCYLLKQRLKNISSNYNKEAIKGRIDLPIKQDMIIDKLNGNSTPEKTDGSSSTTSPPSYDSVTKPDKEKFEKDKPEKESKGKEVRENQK
Sequence of NaV1.3 (Q07699 19-218, further chain): as the sequence (Q07699 19-218) above
Procedure: Sodium channel currents were recorded from HEK293 cells expressing human NaV isoforms together with the β1 auxiliary subunit (SB Drug Discovery, Glasgow, UK) using the QPatch 16X automated whole-cell patch-clamp platform (Sophion Bioscience A/S, Ballerup, Denmark). The external recording solution contained (in mM) the following: 140 NaCl, 3 KCl, 1 CaCl2, 1 MgCl2, 0.1 CdCl2, 20 tetraethylammonium chloride (TEA-Cl), and 5 HEPES; pH was adjusted to 7.3 and osmolarity to 320 mOsm. The internal (pipette) solution consisted of (in mM) the following: 140 CsF, 10 NaCl, 10 HEPES, and 1/5 EGTA/CsOH, also adjusted to pH 7.3 and 320 mOsm. Cells were voltage-clamped at a holding potential of −80 mV, and inward Na^+ currents were evoked by 20 ms depolarizing pulses to 0 mV following a 200 ms hyperpolarizing prepulse to −120 mV. To obtain concentration–response curves, cells at holding potential were incubated for 5 min with increasing concentrations of Oa1a peptides. For determining the potency of Oa1a peptides to inhibit peak current, the maximum peak current within the 20 ms at 0 mV was measured. For determining the potency of Oa1a-NH2 to slow fast inactivation, peak current values were measured at 20 ms of the 0 mV depolarization step. Ion currents (INa) were plotted as I/Imax, where I = current value and Imax = highest current value within the experiment.
For calcium influx experiments, bioactivity comparisons between venom fractions and controls were based on the difference between the maximal and minimal fluorescence intensity values obtained from single-replicate assays. Electrophysiological data analysis was conducted using GraphPad Prism (version 8; GraphPad Software, San Diego, CA, USA). Nonlinear regression was applied to fit the concentration–response relationships using a variable Hill slope: log(inhibitor) versus normalized response for determining IC50 values, and log(agonist) versus normalized response for EC50 calculations. Reversibility and dissociation kinetics were analyzed by fitting data with a single-phase exponential decay model, while voltage-dependence of steady-state activation and inactivation parameters were derived from Boltzmann sigmoid fits of normalized conductance (G/Gmax) or current (I/Imax) values to determine the half-activation or half-inactivation voltages (V50). Data are expressed as mean ± SEM, where n represents the number of individual cells analyzed.

hNaV1.1 to hNaV1.7 = test: NaV subtype preference across NaV1.1 to NaV1.7, patch clamp; assay type: cell-based, human; details: NaV1.1 to NaV1.7, closed-state voltage protocol
Procedure: as §4
Sodium channel currents were recorded from HEK293 cells expressing human NaV isoforms together with the β1 auxiliary subunit (SB Drug Discovery, Glasgow, UK) using the QPatch 16X automated whole-cell patch-clamp platform (Sophion Bioscience A/S, Ballerup, Denmark). The external recording solution contained (in mM) the following: 140 NaCl, 3 KCl, 1 CaCl2, 1 MgCl2, 0.1 CdCl2, 20 tetraethylammonium chloride (TEA-Cl), and 5 HEPES; pH was adjusted to 7.3 and osmolarity to 320 mOsm. The internal (pipette) solution consisted of (in mM) the following: 140 CsF, 10 NaCl, 10 HEPES, and 1/5 EGTA/CsOH, also adjusted to pH 7.3 and 320 mOsm. […] For determining the potency of Oa1a peptides to inhibit peak current, the maximum peak current within the 20 ms at 0 mV was measured. For determining the potency of Oa1a-NH2 to slow fast inactivation, peak current values were measured at 20 ms of the 0 mV depolarization step. […]
as §3

Row | Structure (SMILES) | IC50 (hNaV1.4) | Activity on NaV1.4 (in words) (hNaV1.4; tested at up to 3 μM) | IC50 (hNaV1.5) | Ratio OH/NH2 (IC50 sOa1a-OH / IC50 sOa1a-NH2), NaV1.5 (hNaV1.5; ratio of IC50 values) | IC50 (hNaV1.6) | Ratio OH/NH2 (IC50 sOa1a-OH / IC50 sOa1a-NH2), NaV1.6 (hNaV1.6; ratio of IC50 values) | IC50 (hNaV1.7) | Ratio OH/NH2 (IC50 sOa1a-OH / IC50 sOa1a-NH2), NaV1.7 (hNaV1.7; ratio of IC50 values) | Activity on CaV3.2 (CaV3.2) | Slowing of fast inactivation of NaV1.3 (in words) (NaV1.3) | NaV subtype preference of inhibition (in words) (hNaV1.1 to hNaV1.7) | EC50 (NaV1.3; current measured at 20 ms of the 0 mV depolarization step, 5 min incubation, mean ± SEM, 3 to 5 repeats)
1 | CC(C)C[C@@H]1NC(=O)[C@H](Cc2ccccc2)NC(=O)[C@H](Cc2ccc(O)cc2)NC(=O)[C@H](CCCNC(=N)N)NC(=O)[C@@H](NC(=O)[C@@H](N)CCC(=O)O)CSSC[C@@H]2NC(=O)[C@@H]3CSSC[C@@H](C(=O)N[C@H](C(=O)N[C@@H](Cc4c[nH]c5ccccc45)C(=O)N[C@@H](CC(=O)O)C(=O)N[C@@H](Cc4c[nH]c5ccccc45)C(=O)N[C@H](C(=O)N[C@@H](Cc4ccccc4)C(=O)O)[C@@H](C)O)C(C)C)NC(=O)[C@H](Cc4c[nH]c5ccccc45)NC(=O)[C@H](CCC(N)=O)NC(=O)[C@H](Cc4c[nH]cn4)NC(=O)[C@H](CCCCN)NC(=O)[C@H](CC(N)=O)NC(=O)[C@H](Cc4c[nH]cn4)NC(=O)[C@H](CSSC[C@H](NC(=O)CNC(=O)CNC1=O)C(=O)N[C@@H](CO)C(=O)N[C@@H](CCC(N)=O)C(=O)NCC(=O)N[C@@H](CCC(=O)O)C(=O)N[C@@H](CCCCN)C(=O)N3)NC(=O)[C@H](C(C)C)NC(=O)[C@H](CC(C)C)NC(=O)[C@H](Cc1c[nH]cn1)NC(=O)[C@H](CCC(=O)O)NC2=O [sOa1a-OH] (H-ECRYFLGGCSQGEKCCEHLVCHNKHQWCVWDWTF-OH; disulfide 2-16, 9-21, 15-28; N-terminus assumed) | > 3000 nM | no activity | 1270 ± 22 nM | 6.6 | 568 ± 38 nM | 2.6 | 410 ± 23 nM | 16 | did not observe activity | this dual modulatory activity was not observed | strong preference for inhibiting NaV1.1 | –
2 | CC(C)C[C@@H]1NC(=O)[C@H](Cc2ccccc2)NC(=O)[C@H](Cc2ccc(O)cc2)NC(=O)[C@H](CCCNC(=N)N)NC(=O)[C@@H](NC(=O)[C@@H](N)CCC(=O)O)CSSC[C@@H]2NC(=O)[C@@H]3CSSC[C@@H](C(=O)N[C@H](C(=O)N[C@@H](Cc4c[nH]c5ccccc45)C(=O)N[C@@H](CC(=O)O)C(=O)N[C@@H](Cc4c[nH]c5ccccc45)C(=O)N[C@H](C(=O)N[C@@H](Cc4ccccc4)C(N)=O)[C@@H](C)O)C(C)C)NC(=O)[C@H](Cc4c[nH]c5ccccc45)NC(=O)[C@H](CCC(N)=O)NC(=O)[C@H](Cc4c[nH]cn4)NC(=O)[C@H](CCCCN)NC(=O)[C@H](CC(N)=O)NC(=O)[C@H](Cc4c[nH]cn4)NC(=O)[C@H](CSSC[C@H](NC(=O)CNC(=O)CNC1=O)C(=O)N[C@@H](CO)C(=O)N[C@@H](CCC(N)=O)C(=O)NCC(=O)N[C@@H](CCC(=O)O)C(=O)N[C@@H](CCCCN)C(=O)N3)NC(=O)[C@H](C(C)C)NC(=O)[C@H](CC(C)C)NC(=O)[C@H](Cc1c[nH]cn1)NC(=O)[C@H](CCC(=O)O)NC2=O [sOa1a-NH2] (H-ECRYFLGGCSQGEKCCEHLVCHNKHQWCVWDWTF-NH2; disulfide 2-16, 9-21, 15-28; N-terminus assumed) | 2290 ± 77 nM | – | 192 ± 4 nM | – | 223 ± 18 nM | – | 25 ± 0.4 nM | – | did not observe activity | strongly slowing the fast inactivation of NaV1.3 | strong preference for inhibiting NaV1.1 | 22.9 ± 1.8 nM
